Measurements as given in patent US11376326B2, “GPC3-targeting therapeutic agent which is administered to patient for whom the GPC3-targeting therapeutic agent is effective” (CHUGAI SEIYAKU KABUSHIKI KAISHA, priority 2015, dated 2022).
Read-outs that look alike come from different tables or passages of the source.

How the values were obtained:
[1] = system: advanced hepatocellular carcinoma; details: cited from earlier work
[2] = system: advanced hepatocellular carcinoma; details: Asian trial; cited from earlier work
[3] = system: advanced hepatocellular carcinoma; details: cited from earlier work; remark: listed apart in the source
[4] = system: human cell line HepG2 strongly expressing GPC3; experiment: Antitumor effect in mouse graft models using HepG2; format: in vivo; details: HepG2 graft mice; GC33 or ag-GC33 5 mg/kg tail vein once a week x3; sorafenib 5 mg/kg oral five times a week for 3 weeks; from day 18; FIG. 1
Experimental: GC33 or ag-GC33 was administered at 5 mg/kg to the tail vein of each mouse once a week a total of three times from 18 days after HepG2 transplantation. Sorafenib was orally administered at 5 mg/kg to each mouse five times a week for 3 weeks from 18 days after HepG2 transplantation.

[5] = system: sGPC3-N; experiment: sGPC3-N in mouse plasma by ELISA (GT30/GT607) at completion of antitumor evaluation; format: in vivo; details: HepG2 graft mice, FIG. 2
Experimental: (§1) At the completion of the antitumor effect evaluation, plasma was collected from each mouse. Fragments of a soluble form of GPC3 were assayed by two types of ELISA methods differing in the combination of anti-GPC3 antibodies. In order to detect the fragments of a soluble form of GPC3 in ELISA, mouse monoclonal antibodies binding to the N-terminal subunit of human GPC3 were prepared as described in WO2004/022739. Hereinafter, the obtained antibodies are referred to as GT30 and GT607 for the sake of convenience. Also, mouse monoclonal antibodies binding to the C-terminal subunit of human GPC3 were prepared as described in WO2004/022739. Hereinafter, the obtained antibodies are referred to as GT96 and M3C11 for the sake of convenience. […]
(§2) Specifically, the detection of sGPC3-N and the detection of sGPC3-C by ELISA were performed as follows: first, the GT30 antibody diluted to 1 μg/mL with a carbonatebicarbonate buffer (manufactured by Sigma-Aldrich Co., LLC) or the M3C11 antibody adjusted to 128 μg/mL in the same way thereas was added at 50 μL/well to a 96-well microplate (manufactured by Meso Scale Discovery (MSD), Multi-array 96-well plate) and stirred at room temperature for 1 hour. […] After washing five times with a washing solution, a substrate solution (manufactured by Meso Scale Discovery (MSD), MSD Read Buffer T (4×) with Surfactant) was added thereto at 100 μL/well. […]

[6] = system: sGPC3-C; experiment: sGPC3-C in mouse plasma by ELISA (GT96/M3C11) at completion of antitumor evaluation; format: in vivo; details: HepG2 graft mice, FIG. 3
Experimental: as §1, §2

[7] = target: human GPC3 (Homo sapiens, UniProt P51654); details: cited from earlier work

Compound	time to tumor radiological progression ([1]; European and American trial) [months]	survival duration ([1]; SHARP trial) [months]	survival duration [2] [months]	time to tumor radiological progression [2] [months]	HR of survival duration ([3]; both trials, versus placebo)	objective response rate ([3]; in vivo)	time to symptomatic progression ([3]; in vivo)	tumor enlargement inhibitory effect (tumor volume) [4]	sGPC3-N level in plasma [5]	sGPC3-C level in plasma [6]	binding affinity to human GPC3 [7]
CNC(=O)c1cc(Oc2ccc(NC(=O)Nc3ccc(Cl)c(C(F)(F)F)c3)cc2)ccn1 [sorafenib]	5.5	10.7	6.5	2.8	0.68	low	no prolongation	the tumor enlargement inhibitory effect was weaker than that of GC33	equivalent to the GC33 administration group		
GC33: recombinant humanized IgG1 monoclonal antibody binding to human GPC3 with high affinity (WO2006/006693)								tumor enlargement was inhibited as compared with the control group	a lower level of sGPC3-N was found as compared with the control group	higher in the GC33 administration group compared with the control group, the ag-GC33 group, and the sorafenib group	high affinity
